Like-named read-outs stand apart in the source and are kept apart here.
Columns and labels:
[1] = system: total HDAC activity in cultured neonatal mouse ventricular cardiomyocytes; test: Fluor de Lys total HDAC activity assay in cultured ventricular cardiomyocytes; assay type: cell-based; details: NMVMs, 18–24 h treatment
Experimental: Neonatal mice born from an inbred C57BL/6 mouse colony were anesthetized using isoflurane and the hearts were excised in accordance with procedures approved by the SUNY Upstate Medical University Institutional Animal Care and Use Committee (IACUC) # 263 on 15 March 2017. The excised hearts were separated into atria and ventricles and exposed to collagenase solution for digestion. The dissociated cells were pre-plated for 30 min to reduce fibroblast content by differential adhesion and the supernatant was collected, centrifuged and re-suspended in 1 mL/heart of M199/10% FBS culture media. The primary cells were plated into 96-well plates for HDAC activity assays, 35 mm culture dishes for patch clamp electrophysiology, or 60 mm culture dishes and homogenized after 3 days for Western blots.
Aliquots of 2 × 10^5 ventricular myocytes per well (96-well plate) were grown in 200 μL of 200 μM bromodeoxyuridine (BrDU)/M199, exchanged daily. Cell densities were counted with a hemocytometer and seeded into the wells. Wells were incubated with 2000 pmoles of the acetylated Fluor-de-Lys® substrate for 8 h during HDAC inhibition. […]

[2] = system: ventricular gap junction conductance (gj), Cx43-mediated; test: Gap junction conductance (gj), dual whole cell patch clamp on NMVM cell pairs; assay type: cell-based, mouse; details: 10 or 25 nM ricolinostat, 18–24 h
Experimental: Final DMSO levels were <0.005% (vol/vol).
Gap junction currents (Ij) were recorded in the dual whole cell configuration according to previously published methods. Upon establishing a dual whole cell patch, Ij was recorded using a 30 s, 20 mV trans-junctional voltage protocol. All dual whole cell current recordings were low-pass filtered at 500 Hz and digitized at 2 KHz using pClamp 8.2 and graphical analysis performed using Origin 7.5 or 8.6 software as previously described.

[3] = system: cardiac sodium current (INa) in NMVMs, primarily NaV1.5; test: Cardiac sodium current (INa) density and Vm-dependent gNa activation/inactivation, whole cell patch clamp; assay type: cell-based, mouse
From the text: Since both the activation and inactivation of INa are dependent on the membrane potential (Vm), we calculated the normalized Na^+ conductance (gNa) by dividing the average peak INa by the difference between Vm and the reversal potential (Erev) for INa, and then divided the gNa value for each Vm by the maximum gNa value for each experiment. The gNa–Vm curves were fit with a Boltzmann function gNa= gNamax+ (gNa− gNamax)/[1+exp((Vm− V1/2)/dVm)] using Origin 8.6. […] Final DMSO levels were <0.005% (vol/vol).

[4] = system: late INa in NMVMs; test: Late INa, whole cell patch clamp; assay type: cell-based, mouse; details: 25 nM ricolinostat 18–24 h, Vm ramp
From the text: Increases in late or persistent INa have been linked to cardiac arrhythmias and heart failure. […] . Subsequently, we modified a voltage clamp ramp protocol designed to generate late INa I–V relationships. […] .

[5] = system: Cx43 protein expression in NMVMs; test: Western blot of Cx43 protein level; assay type: cell-based, mouse; details: 25 nM ricolinostat, 24 h
[6] = system: NaV1.5 protein expression in NMVMs; test: Western blot of NaV1.5 protein level; assay type: cell-based, mouse; details: 25 nM ricolinostat, 24 h
[7] = system: HDAC1; design: method as in PMID 22262760; details: cited from earlier work
[8] = system: HDAC2; design: method as in PMID 22262760; details: cited from earlier work
[9] = system: HDAC3; design: method as in PMID 22262760; details: cited from earlier work
[10] = system: HDAC8; design: method as in PMID 22262760; details: cited from earlier work
[11] = system: HDAC4; design: method as in PMID 22262760; details: cited from earlier work
[12] = system: HDAC5; design: method as in PMID 22262760; details: cited from earlier work
[13] = system: HDAC7; design: method as in PMID 22262760; details: cited from earlier work
[14] = system: HDAC9; design: method as in PMID 22262760; details: cited from earlier work
[15] = system: acetyl-α-tubulin and acetyl-histone 3; test: Western blot of acetylation markers; details: 25 nM ACY-1215, 24 h
[16] = system: IK,to and IK,ss in NMVMs; test: Transient and steady state outward K+ currents, whole cell patch clamp; details: 25 nM ACY-1215, 24 h
[17] = 25 nM ricolinostat, listed as ricolinostat

SMILES: O=C(CCCCCCNC(=O)c1cnc(N(c2ccccc2)c2ccccc2)nc1)NO [Ricolinostat, ricolinostat]
- C1, decay constant of first exponential component of HDAC inhibition curve ([1]; double exponential fit): 16.9 ± 15.1 nM
- C2, decay constant of second exponential component of HDAC inhibition curve ([1]; double exponential fit): 204 ± 52 nM
- IC50 ([1]; read-out: IC50(1), high affinity site, total HDAC activity, IC50 = 0.693·C1): 0.012 µM
- IC50 ([1]; read-out: IC50(1), high affinity site, total HDAC activity, IC50 = 0.693·C1, listed as ACY-1215): 0.0117 ± 0.0105 µM
- IC50 ([1]; read-out: IC50(2), low affinity site, total HDAC activity, IC50 = 0.693·C2): 0.14 µM
- IC50 ([1]; read-out: IC50(2), low affinity site, total HDAC activity, IC50 = 0.693·C2, listed as ACY-1215): 0.141 ± 0.036 µM
- effect on ventricular gj [2]: modest but non-significant increases and decreases in gj, respectively
- increase in peak INa ([3]; 25 nM ricolinostat, not statistically significant (p = 0.054, one-way ANOVA)): 93%
- effect on peak INa density ([3]; 10 and 25 nM ricolinostat): concentration-dependent, but non-significant, increase
- effect on late INa current density [4]: no increase in late INa
- Cx43 protein level [5]: no significant changes
- NaV1.5 protein level [6]: no significant changes
- IC50 [13]: 1.4 µM
- Ac-H3 and Ac-α-tubulin signals [15]: only increased the Ac-α-tubulin signal
- transient outward and steady state K+ currents [16]: no si gni ficant chang es

From paper PMC6121244, “Differences in Functional Expression of Connexin43 and NaV1.5 by Pan- and Class-Selective Histone Deacetylase Inhibition in Heart” (International Journal of Molecular Sciences, 2018)
